Data as given in ChEMBL document CHEMBL1201862, “PubChem BioAssay data set” (2004).
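Cultured in 96-well plates, cells were exposed to test compound for 48 hours across five concentrations. Abbreviation: GI50, concentration required for 50% inhibition of growth.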 Calls of active or inactive are those of the source. Rule as the data show it: active = GI50 up to about 1.1 µM and inactive = higher.

What was measured:
Assay in all cases: NCI tumour cell line growth inhibition, 48 h
OVCAR-4 = test system: OVCAR-4
SF-539 = test system: SF-539
MOLT-4 = test system: MOLT-4
NCI-H23 = test system: NCI-H23
K562 = test system: K562
HT-29 = test system: HT-29
SNB-19 = test system: SNB-19
A549 = test system: A549
U-251 = test system: U-251
SN12C = test system: SN12C
KM12 = test system: KM12
UACC-257 = test system: UACC-257
EKVX = test system: EKVX
UO-31 = test system: UO-31
IGROV-1 = test system: IGROV-1
OVCAR-8 = test system: OVCAR-8
SF-268 = test system: SF-268
SNB-75 = test system: SNB-75
NCI-H226 = test system: NCI-H226
SF-295 = test system: SF-295

Row | SMILES | GI50 (OVCAR-4) | GI50 (SF-539) | GI50 (MOLT-4) | GI50 (NCI-H23) | GI50 (K562) | GI50 (HT-29) | GI50 (SNB-19) | GI50 (A549) | GI50 (U-251) | GI50 (SN12C) | GI50 (KM12) | GI50 (UACC-257) | GI50 (EKVX) | GI50 (UO-31) | GI50 (IGROV-1) | GI50 (OVCAR-8) | GI50 (SF-268) | GI50 (SNB-75) | GI50 (NCI-H226) | GI50 (SF-295)
1 | O[C@@]12Cc3c([nH]c4ccccc34)[C@@H]3Oc4cccc5c4[C@@]31CCN(CC1CC1)[C@@H]2C5 | 22.5 µM (inactive) | 20.9 µM (inactive) | 19.6 µM (inactive) | 30.7 µM (inactive) | 22.6 µM (inactive) | 15.9 µM (inactive) | 33 µM (inactive) | 27 µM (inactive) | 39.7 µM (inactive) | 21.7 µM (inactive) | 39.7 µM (inactive) | 24.9 µM (inactive) | 24.5 µM (inactive) | 18.9 µM (inactive) | 24.9 µM (inactive) | 15.1 µM (inactive) | 19.5 µM (inactive) |  |  | 
2 | c1ccc(CCn2cncn2)cc1 | > 100 µM (inactive) | > 100 µM (inactive) | > 100 µM (inactive) | > 100 µM (inactive) | > 100 µM (inactive) | > 100 µM (inactive) | > 100 µM (inactive) | > 100 µM (inactive) | > 100 µM (inactive) | > 100 µM (inactive) | > 100 µM (inactive) | > 100 µM (inactive) | > 100 µM (inactive) | > 100 µM (inactive) | > 100 µM (inactive) |  | > 100 µM (inactive) | > 100 µM (inactive) | > 100 µM (inactive) | > 100 µM (inactive)
3 | CC(C)=CCC/C(C)=C/CCC1(C)C=Cc2c(c3ccccc3oc2=O)O1 (stereo not given) | 14.5 µM (inactive) | 16.1 µM (inactive) | 20.6 µM (inactive) | 14.8 µM (inactive) | 23.6 µM (inactive) | 18.8 µM (inactive) | 20.5 µM (inactive) | 17.5 µM (inactive) | 15.3 µM (inactive) | 16.8 µM (inactive) | 18.5 µM (inactive) | 17.1 µM (inactive) | 18.5 µM (inactive) | 15.5 µM (inactive) | 16.4 µM (inactive) | 16.7 µM (inactive) | 20.6 µM (inactive) | 13.4 µM (inactive) | 16.1 µM (inactive) | 18.8 µM (inactive)
4 | O=C1N/C(=N/N=C/c2c[nH]c3ccccc23)N/C1=C\c1cccs1 | > 100 µM (inactive) | > 100 µM (inactive) | > 100 µM (inactive) | > 100 µM (inactive) | > 100 µM (inactive) | 52.2 µM (inactive) | 14.8 µM (inactive) | 76.6 µM (inactive) | 36.2 µM (inactive) | > 100 µM (inactive) | 55.8 µM (inactive) | 77.3 µM (inactive) | > 100 µM (inactive) | > 100 µM (inactive) | > 100 µM (inactive) | > 100 µM (inactive) | > 100 µM (inactive) | > 100 µM (inactive) | > 100 µM (inactive) | > 100 µM (inactive)
5 | CNS(=O)(=O)NN(C)S(=O)(=O)c1ccc(F)cc1 | > 100 µM (inactive) | > 100 µM (inactive) | > 100 µM (inactive) | > 100 µM (inactive) | > 100 µM (inactive) | > 100 µM (inactive) | > 100 µM (inactive) | > 100 µM (inactive) | > 100 µM (inactive) | > 100 µM (inactive) | > 100 µM (inactive) | > 100 µM (inactive) | > 100 µM (inactive) | > 100 µM (inactive) | > 100 µM (inactive) | > 100 µM (inactive) | > 100 µM (inactive) | 47 µM (inactive) | > 100 µM (inactive) | > 100 µM (inactive)
6 | CCSc1nc(N/N=C/c2cccs2)c2cnn(CO)c2n1 | 23.6 µM (inactive) | 10.5 µM (inactive) |  | 7.05 µM (inactive) | 4.13 µM (inactive) | 3.85 µM (inactive) | 10.8 µM (inactive) | 7 µM (inactive) | 6.85 µM (inactive) | 6.44 µM (inactive) | 0.408 µM (active) | 11.6 µM (inactive) | 9.08 µM (inactive) | 2.81 µM (inactive) | 2.61 µM (inactive) | 4.16 µM (inactive) | 6.22 µM (inactive) | 14.2 µM (inactive) | 3.1 µM (inactive) | 8.13 µM (inactive)
7 | CCCCCCCCCCCCCCCCCc1cc(Cl)nc(Cl)n1 | > 100 µM (inactive) | > 100 µM (inactive) | > 100 µM (inactive) | > 100 µM (inactive) | > 100 µM (inactive) | > 100 µM (inactive) | > 100 µM (inactive) | > 100 µM (inactive) | > 100 µM (inactive) | > 100 µM (inactive) | > 100 µM (inactive) | > 100 µM (inactive) | > 100 µM (inactive) | > 100 µM (inactive) | > 100 µM (inactive) | > 100 µM (inactive) | > 100 µM (inactive) | > 100 µM (inactive) | > 100 µM (inactive) | > 100 µM (inactive)
